Results on 17 compounds are retold here after patent publication US9365522B2, “Pyrazole amide derivative” (AMGEN INC., priority 2015, dated 2016).

Structures are written as SMILES. Where only a bound is given, the exact number is not on record here.

This assay addresses T1, ligand binding domain of human ROR gamma (Homo sapiens, UniProt P51449).
T1 construct: NM_001001523; expressed in transfected cells; host or cells: HEK293T
T1 sequence (P51449 247-497 isoform P51449-2): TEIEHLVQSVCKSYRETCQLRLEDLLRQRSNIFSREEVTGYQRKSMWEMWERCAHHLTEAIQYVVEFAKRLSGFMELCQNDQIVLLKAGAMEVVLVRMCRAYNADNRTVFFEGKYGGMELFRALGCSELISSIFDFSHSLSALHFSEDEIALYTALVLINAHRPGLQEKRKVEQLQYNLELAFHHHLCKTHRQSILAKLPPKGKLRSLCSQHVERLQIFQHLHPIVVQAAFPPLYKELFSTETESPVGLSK
Put plainly: ROR gamma reporter gene assay (GAL4-RORγ LBD luciferase, Dual-Glo). The format is cell-based. As to conditions: HEK293T cells transfected with pM-ROR gamma, 8 concentrations 3.5 nM to 10.5 μM, 24 h incubation; read-out: result (pIC50, inhibition of RORγ transcriptional activity) (converted). In outline: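 First, HEK293T cells are transfected with the GAL4–RORγ LBD construct, a 5×UAS luciferase reporter and a constitutive renilla control. Next, test compounds are added over eight concentrations (3.5 nM to 10.5 μM). After 24 h at 37 °C, Dual-Glo luminescence is measured and pIC50 fitted.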
For the compound `CC1(C)CCC(N(CC(=O)c2c(Cl)cccc2Cl)C(=O)c2cnn([C@H]3CC[C@](C)(C(=O)O)CC3)c2C(F)(F)F)CC1` [Example 283, trans-4-(4-((2-(2,6-dichlorophenyl)-2-oxoethyl)-(4,4-dimethylcyclohexyl)carbamoyl)-5-(trifluoromethyl)pyrazol-1-yl)-1-methylcyclohexane-1-carboxylic acid], the IC50 is 9120 pM. With `CC(C)(C)CN(CC(=O)c1c(Cl)cccc1Cl)C(=O)c1cnn([C@H]2CC[C@](C)(C(=O)O)CC2)c1C(F)(F)F` [Example 284, trans-4-(4-((2-(2,6-dichlorophenyl)-2-oxoethyl)-(2,2-dimethylpropyl)carbamoyl)-5-(trifluoromethyl)pyrazol-1-yl)-1-methylcyclohexane-1-carboxylic acid], the IC50 is 11200 pM. The value for `CCC(C)(C)CN(CC(=O)c1c(Cl)cncc1Cl)C(=O)c1cnn([C@H]2CC[C@](C)(C(=O)O)CC2)c1C(F)(F)F` [Example 286, trans-4-(4-((2-(3,5-dichioropyridin-4-yl)-2-oxoethyl)-(2,2-dimethylbutyl)carbamoyl)-5-(trifluoromethyl)pyrazol-1-yl)-1-methylcyclohexane-1-carboxylic acid] was 9120 pM. As for `CCC(CC)N(CC(=O)c1c(Cl)cncc1Cl)C(=O)c1cnn([C@H]2CC[C@](C)(C(=O)O)CC2)c1C(F)(F)F` [Example 287, trans-4-(4-((2-(3,5-dichloropyridin-4-yl)-2-oxoethyl)-pentan-3-ylcarbamoyl)-5-(trifluoromethyl)pyrazol-1-yl)-1-methylcyclohexane-1-carboxylic acid], the figure is 1.2e+06 pM; as for `CCC(C)(C)CN(CC(=O)c1c(Cl)cncc1Cl)C(=O)c1cnn(C23CCC(C(=O)O)(CC2)CC3)c1C(F)(F)F` [Example 288, 4-(4-((2-(3,5-dichloropyridin-4-yl)-2-oxoethyl)-(2,2-dimethylbutyl)carbamoyl)-5-(trifluoromethyl)pyrazol-1-yl)bicyclo[2.2.2]octane-1-carboxylic acid], 11700 pM; as for `C[C@]1(C(=O)O)CC[C@H](n2ncc(C(=O)N(CC(=O)c3c(Cl)cc(Cl)cc3Cl)C3CCC4(CC3)COC4)c2C(F)(F)F)CC1` [Example 289, trans-1-methyl-4-(4-(2-oxaspiro[3.5]nonan-7-yl-(2-oxo-2-(2,4,6-trichlorophenyl)ethyl)carbamoyl)-5-(trifluoromethyl)pyrazol-1-yl)cyclohexane-1-carboxylic acid], 93300 pM. Take `CC1(C)CCC(N(CC(=O)c2c(Cl)cc(F)cc2Cl)C(=O)c2cnn([C@H]3C[C@H](C(=O)O)C3)c2C(F)(F)F)CC1` [Example 290, trans-3-(4-((2-(2,6-dichloro-4-fluorophenyl)-2-oxoethyl)-(4,4-dimethylcyclohexyl)carbamoyl)-5-(trifluoromethyl)pyrazol-1-yl)cyclobutane-1-carboxylic acid]: the IC50 is 191000 pM.

`CC1(C)CCC(N(CC(=O)c2c(Cl)cc(F)cc2Cl)C(=O)c2cnn([C@H]3C[C@@H](C(=O)O)C3)c2C(F)(F)F)CC1` [Example 291, cis-3-(4-((2-(2,6-dichloro-4-fluorophenyl)-2-oxoethyl)-(4,4-dimethylcyclohexyl)carbamoyl)-5-(trifluoromethyl)pyrazol-1-yl)cyclobutane-1-carboxylic acid]: the IC50 was 1.02e+06 pM.

As for `CC(C)(C)OCCN(CC(=O)c1c(Cl)cc(F)cc1Cl)C(=O)c1cnn([C@H]2CC[C@](C)(C(=O)O)CC2)c1C(F)(F)F` [Example 292, trans-4-(4-((2-(2,6-dichloro-4-fluorophenyl)-2-oxoethyl)-(2-((2-methylpropan-2-yl)oxy)ethyl)carbamoyl)-5-(trifluoromethyl)pyrazol-1-yl)-1-methylcyclohexane-1-carboxylic acid], the IC50 is 47900 pM. As for `CC(C)(C)OCCN(CC(=O)c1c(Cl)cc(Cl)cc1Cl)C(=O)c1cnn([C@H]2CC[C@](C)(C(=O)O)CC2)c1C(F)(F)F` [Example 293, trans-1-methyl-4-(4-(2-((2-methylpropan-2-yl)oxy)ethyl-(2-oxo-2-(2,4,6-trichlorophenyl)ethyl)carbamoyl)-5-(trifluoromethyl)pyrazol-1-yl)cyclohexane-1-carboxylic acid], the IC50 is 33100 pM.

Turning to `CC(C)(C)CN(CC(=O)c1c(F)cncc1Cl)C(=O)c1cnn([C@H]2CC[C@](C)(C(=O)O)CC2)c1C(F)(F)F` [Example 294, trans-4-(4-((2-(3-chloro-5-fluoropyridin-4-yl)-2-oxoethyl)-(2,2-dimethylpropyl)carbamoyl)-5-(trifluoromethyl)pyrazol-1-yl)-1-methylcyclohexane-1-carboxylic acid], the IC50 is 49000 pM. As for `CN1CCC(N(CC(=O)c2c(Cl)cc(F)cc2Cl)C(=O)c2cnn([C@H]3CC[C@](C)(C(=O)O)CC3)c2C(F)(F)F)CC1` [Example 295, trans-4-(4-((2-(2,6-dichloro-4-fluorophenyl)-2-oxoethyl)-(1-methylpiperidin-4-yl)carbamoyl)-5-(trifluoromethyl)pyrazol-1-yl)-1-methylcyclohexane-1-carboxylic acid], the figure is 5.62e+06 pM; as for `CC(C)N1CCC(N(CC(=O)c2c(Cl)cc(F)cc2Cl)C(=O)c2cnn([C@H]3CC[C@](C)(C(=O)O)CC3)c2C(F)(F)F)CC1` [Example 296, trans-4-(4-((2-(2,6-dichloro-4-fluorophenyl)-2-oxoethyl)-(1-propan-2-ylpiperidin-4-yl)carbamoyl)-5-(trifluoromethyl)pyrazol-1-yl)-1-methylcyclohexane-1-carboxylic acid], over 1.05e+07 pM. The value for `CC(C)(C)CN(CC(=O)c1c(F)cccc1Cl)C(=O)c1cnn([C@H]2CC[C@](C)(C(=O)O)CC2)c1C(F)(F)F` [Example 297, trans-4-(4-((2-(2-chloro-6-fluorophenyl)-2-oxoethyl)-(2,2-dimethylpropyl)carbamoyl)-5-(trifluoromethyl)pyrazol-1-yl)-1-methylcyclohexane-1-carboxylic acid] was 66100 pM; that for `O=C(CN(CC1(F)CCCC1)C(=O)c1cnn(C23CCC(C(=O)O)(CC2)CC3)c1C(F)(F)F)c1c(Cl)cc(Cl)cc1Cl` [Example 298, 4-(4-((1-fluorocyclopentyl)methyl-(2-oxo-2-(2,4,6-trichlorophenyl)ethyl)carbamoyl)-5-(trifluoromethyl)pyrazol-1-yl)bicyclo[2.2.2]octane-1-carboxylic acid] was 12900 pM.

On to `O=C(CN(CC1(F)CCCC1)C(=O)c1cnn(C23CCC(C(=O)O)(CC2)CC3)c1C(F)(F)F)c1c(Cl)cncc1Cl` [Example 299, 4-(4-((2-(3,5-dichloropyridin-4-yl)-2-oxoethyl)-((1-fluorocyclopentyl)methyl)carbamoyl)-5-(trifluoromethyl)pyrazol-1-yl)bicyclo[2.2.2]octane-1-carboxylic acid], for which the IC50 is 20900 pM. The value for `Cc1cc(Cl)c(C(=O)CN(CC2(F)CCCC2)C(=O)c2cnn(C34CCC(C(=O)O)(CC3)CC4)c2C(F)(F)F)c(Cl)c1` [Example 300, 4-(4-((2-(2,6-dichloro-4-methyIphenyl)-2-oxoethyl)-((1-fluorocyclopentyl)methyl)carbamoyl)-5-(trifluoromethyl)pyrazol-1-yl)bicyclo[2.2.2]octane-1-carboxylic acid] was 24000 pM.
